Measurements as given in publication PMC8185074, “Anchor extension: a structure-guided approach to design cyclic peptides targeting enzyme active sites” (Nature Communications, 2021).
Peptide text beside a SMILES is read from it.

Tests used:
Format in all cases: biochemical
HDAC6 = molecular target: T1, HDAC6 (Homo sapiens, UniProt Q9UBN7); assay: HDAC6 inhibition, full IC50 measurement (Reaction Biology; fluorogenic p53 peptide RHKK(Ac)AMC)
T1 construct: purchased Reaction Biology Corporation (assay run by the CRO)
T1 sequence (Q9UBN7 1-1215): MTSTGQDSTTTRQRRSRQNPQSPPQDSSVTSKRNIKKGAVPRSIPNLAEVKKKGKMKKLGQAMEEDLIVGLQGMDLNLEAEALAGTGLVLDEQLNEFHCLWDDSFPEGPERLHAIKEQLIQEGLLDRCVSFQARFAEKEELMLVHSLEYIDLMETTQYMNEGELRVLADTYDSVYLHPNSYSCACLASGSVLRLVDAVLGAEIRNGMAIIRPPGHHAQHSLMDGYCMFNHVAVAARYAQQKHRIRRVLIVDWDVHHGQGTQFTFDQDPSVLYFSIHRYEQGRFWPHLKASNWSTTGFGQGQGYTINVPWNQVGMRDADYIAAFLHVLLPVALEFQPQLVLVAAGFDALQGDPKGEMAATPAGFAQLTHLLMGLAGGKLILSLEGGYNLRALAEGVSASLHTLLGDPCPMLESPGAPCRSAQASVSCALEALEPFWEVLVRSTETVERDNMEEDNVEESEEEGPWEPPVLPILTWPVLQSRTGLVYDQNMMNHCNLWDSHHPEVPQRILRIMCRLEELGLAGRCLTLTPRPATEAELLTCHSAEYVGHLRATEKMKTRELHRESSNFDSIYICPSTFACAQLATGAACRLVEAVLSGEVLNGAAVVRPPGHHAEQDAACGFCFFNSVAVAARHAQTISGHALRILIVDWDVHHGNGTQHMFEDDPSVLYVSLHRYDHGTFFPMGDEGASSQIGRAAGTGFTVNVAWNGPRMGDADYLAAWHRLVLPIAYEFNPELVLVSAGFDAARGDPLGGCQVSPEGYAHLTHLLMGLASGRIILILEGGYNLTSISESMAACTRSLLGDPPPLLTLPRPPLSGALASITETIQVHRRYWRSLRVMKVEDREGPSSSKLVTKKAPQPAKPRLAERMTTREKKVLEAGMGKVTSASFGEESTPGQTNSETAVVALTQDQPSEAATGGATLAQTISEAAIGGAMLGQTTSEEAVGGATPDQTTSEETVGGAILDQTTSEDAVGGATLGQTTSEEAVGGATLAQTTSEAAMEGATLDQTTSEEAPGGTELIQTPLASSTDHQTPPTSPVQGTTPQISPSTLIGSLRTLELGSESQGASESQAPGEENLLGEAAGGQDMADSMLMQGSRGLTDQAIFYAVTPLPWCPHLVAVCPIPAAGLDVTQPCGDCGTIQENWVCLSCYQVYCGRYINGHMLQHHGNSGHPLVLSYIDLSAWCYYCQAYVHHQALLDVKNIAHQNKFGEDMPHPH
Summary of the method: (§1)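 Deacetylation of 50 μM RHKK(Ac)AMC is measured after 1 h at 30 °C in pH 8.0 Tris buffer (1% DMSO, 1 mg/ml BSA). Developer ends the reaction; the post-plateau 360/460 nm signal is fitted to IC50, averaging replicate measurements.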

HDAC1 = molecular target: T2, HDAC1 (Homo sapiens, UniProt Q13547); assay: HDAC1 inhibition, full IC50 measurement (Reaction Biology; fluorogenic p53 peptide RHKK(Ac)AMC); settings: t1/t2 replicates
T2 construct: purchased Reaction Biology Corporation (assay run by the CRO)
Summary of the method: as §1

HDAC8 = molecular target: T3, HDAC8 (Homo sapiens, UniProt Q9BY41); assay: HDAC8 inhibition, full IC50 measurement (Reaction Biology; fluorogenic p53 peptide RHKK(Ac)AMC); settings: t1/t2 replicates
T3 construct: purchased Reaction Biology Corporation (assay run by the CRO)
T3 sequence (Q9BY41 1-377): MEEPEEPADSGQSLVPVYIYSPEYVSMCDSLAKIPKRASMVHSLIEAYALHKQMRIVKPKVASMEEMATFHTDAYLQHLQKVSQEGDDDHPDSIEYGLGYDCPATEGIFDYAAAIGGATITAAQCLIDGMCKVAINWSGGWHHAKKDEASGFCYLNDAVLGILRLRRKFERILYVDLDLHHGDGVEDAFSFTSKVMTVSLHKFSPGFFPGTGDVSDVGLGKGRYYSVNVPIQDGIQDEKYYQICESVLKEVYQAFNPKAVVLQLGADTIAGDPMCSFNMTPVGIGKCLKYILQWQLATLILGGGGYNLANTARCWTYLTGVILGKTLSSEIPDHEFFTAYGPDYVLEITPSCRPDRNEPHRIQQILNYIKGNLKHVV
Summary of the method: as §1

[1] = peptide conc. 1.00E-05 M, listed as des1.1.0_t1
[2] = peptide conc. 1.00E-05 M, listed as des1.1.0_t2
[3] = peptide conc. 1.11E-06 M, listed as des1.1.0_t1
[4] = peptide conc. 1.11E-06 M, listed as des1.1.0_t2
[5] = peptide conc. 1.23E-07 M, listed as des1.1.0_t1
[6] = peptide conc. 1.23E-07 M, listed as des1.1.0_t2
[7] = peptide conc. 1.37E-08 M, listed as des1.1.0_t1
[8] = peptide conc. 1.52E-09 M, listed as des1.1.0_t1
[9] = peptide conc. 1.52E-09 M, listed as des1.1.0_t2
[10] = peptide conc. 3.33E-06 M, listed as des1.1.0_t1
[11] = peptide conc. 3.33E-06 M, listed as des1.1.0_t2
[12] = peptide conc. 3.70E-07 M, listed as des1.1.0_t1
[13] = peptide conc. 3.70E-07 M, listed as des1.1.0_t2
[14] = peptide conc. 4.12E-08 M, listed as des1.1.0_t1
[15] = peptide conc. 4.12E-08 M, listed as des1.1.0_t2
[16] = peptide conc. 4.57E-09 M, listed as des1.1.0_t1
[17] = peptide conc. 4.57E-09 M, listed as des1.1.0_t2
[18] = peptide conc. 5.08E-10 M, listed as des1.1.0_t1
[19] = peptide conc. 5.08E-10 M, listed as des1.1.0_t2

T2 sequence (Q13547 whole entry): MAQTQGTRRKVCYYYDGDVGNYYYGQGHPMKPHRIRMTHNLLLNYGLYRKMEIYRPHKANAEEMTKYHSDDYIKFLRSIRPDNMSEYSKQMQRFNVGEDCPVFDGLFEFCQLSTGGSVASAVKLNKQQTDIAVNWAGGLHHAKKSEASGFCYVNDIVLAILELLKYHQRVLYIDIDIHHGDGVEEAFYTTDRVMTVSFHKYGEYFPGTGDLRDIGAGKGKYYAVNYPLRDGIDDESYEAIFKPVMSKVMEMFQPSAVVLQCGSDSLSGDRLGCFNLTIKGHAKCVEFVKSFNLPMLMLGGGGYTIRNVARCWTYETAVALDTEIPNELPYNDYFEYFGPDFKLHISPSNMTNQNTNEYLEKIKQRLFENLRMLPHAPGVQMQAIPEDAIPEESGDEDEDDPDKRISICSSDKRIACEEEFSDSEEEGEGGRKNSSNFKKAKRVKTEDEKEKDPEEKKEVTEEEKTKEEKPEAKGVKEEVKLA

NCCCC[C@@H]1NC(=O)[C@@H]2CCCN2C(=O)[C@H](CC(N)=O)NC(=O)[C@H](CCCCCS)NC(=O)CNC(=O)[C@H](Cc2c[nH]c3ccccc23)NC(=O)[C@@H](CCCCN)NC(=O)[C@H](CCC(N)=O)NC1=O [des1.1.0, SHA-Asn-Pro-Lys-Gln-dLys-Trp-Gly] (HELM PEPTIDE1{G.[O=C([C@H](CCCCCS)N[*:1])[*:2]].N.P.K.Q.[dK].W}$PEPTIDE1,PEPTIDE1,1:R1-8:R2$$$V2.0)
HDAC6 activity raw data (signal) (HDAC6; Conc. 1.00E-05 M, t1): 8262 | HDAC6 activity raw data (signal) (HDAC6; Conc. 1.00E-05 M, t2): -132 | HDAC6 activity raw data (signal) (HDAC6; Conc. 1.11E-06 M, t1): 22357 | HDAC6 activity raw data (signal) (HDAC6; Conc. 1.11E-06 M, t2): 16681 | HDAC6 activity raw data (signal) (HDAC6; Conc. 1.23E-07 M, t1): 128420 | HDAC6 activity raw data (signal) (HDAC6; Conc. 1.23E-07 M, t2): 107875 | HDAC6 activity raw data (signal) (HDAC6; Conc. 1.37E-08 M, t1): 427941 | HDAC6 activity raw data (signal) (HDAC6; Conc. 1.37E-08 M, t2): 374868 | HDAC6 activity raw data (signal) (HDAC6; Conc. 1.52E-09 M, t1): 599157 | HDAC6 activity raw data (signal) (HDAC6; Conc. 1.52E-09 M, t2): 570644 | HDAC6 activity raw data (signal) (HDAC6; Conc. 3.33E-06 M, t1): 12160 | HDAC6 activity raw data (signal) (HDAC6; Conc. 3.33E-06 M, t2): 5788 | HDAC6 activity raw data (signal) (HDAC6; Conc. 3.70E-07 M, t1): 52219 | HDAC6 activity raw data (signal) (HDAC6; Conc. 3.70E-07 M, t2): 39167 | HDAC6 activity raw data (signal) (HDAC6; Conc. 4.12E-08 M, t1): 251632 | HDAC6 activity raw data (signal) (HDAC6; Conc. 4.12E-08 M, t2): 228170 | HDAC6 activity raw data (signal) (HDAC6; Conc. 4.57E-09 M, t1): 511649 | HDAC6 activity raw data (signal) (HDAC6; Conc. 4.57E-09 M, t2): 482006 | HDAC6 activity raw data (signal) (HDAC6; Conc. 5.08E-10 M, t1): 622162 | HDAC6 activity raw data (signal) (HDAC6; Conc. 5.08E-10 M, t2): 563120 | IC50 (HDAC6; unit printed only in the axis title, read-out: HDAC6 IC50 (printed in dose-response picture)): 25 nM | HDAC1 activity raw data (signal) (HDAC1; [1]): 20784 | HDAC1 activity raw data (signal) (HDAC1; [2]): 14494 | HDAC1 activity raw data (signal) (HDAC1; [3]): 173781 | HDAC1 activity raw data (signal) (HDAC1; [4]): 153537 | HDAC1 activity raw data (signal) (HDAC1; [5]): 723204 | HDAC1 activity raw data (signal) (HDAC1; [6]): 656726 | HDAC1 activity raw data (signal) (HDAC1; [7]): 1174733 | HDAC1 activity raw data (signal) (HDAC1; peptide conc. 1.37E-08 M, listed as des1.1.0_t2): 1037204 | HDAC1 activity raw data (signal) (HDAC1; [8]): 1283411 | HDAC1 activity raw data (signal) (HDAC1; [9]): 1084142 | HDAC1 activity raw data (signal) (HDAC1; [10]): 63841 | HDAC1 activity raw data (signal) (HDAC1; [11]): 53160 | HDAC1 activity raw data (signal) (HDAC1; [12]): 422237 | HDAC1 activity raw data (signal) (HDAC1; [13]): 392419 | HDAC1 activity raw data (signal) (HDAC1; [14]): 1039124 | HDAC1 activity raw data (signal) (HDAC1; [15]): 863645 | HDAC1 activity raw data (signal) (HDAC1; [16]): 1182029 | HDAC1 activity raw data (signal) (HDAC1; [17]): 1065379 | HDAC1 activity raw data (signal) (HDAC1; [18]): 1239936 | HDAC1 activity raw data (signal) (HDAC1; [19]): 1111104 | HDAC8 activity raw data (signal) (HDAC8; [1]): 10236983 | HDAC8 activity raw data (signal) (HDAC8; [2]): 10257985 | HDAC8 activity raw data (signal) (HDAC8; [3]): 29747792 | HDAC8 activity raw data (signal) (HDAC8; [4]): 28102681 | HDAC8 activity raw data (signal) (HDAC8; [5]): 42994609 | HDAC8 activity raw data (signal) (HDAC8; [6]): 40726222 | HDAC8 activity raw data (signal) (HDAC8; [7]): 47328720 | HDAC8 activity raw data (signal) (HDAC8; [8]): 53395040 | HDAC8 activity raw data (signal) (HDAC8; [9]): 46072556 | HDAC8 activity raw data (signal) (HDAC8; [10]): 22600954 | HDAC8 activity raw data (signal) (HDAC8; [11]): 20891410 | HDAC8 activity raw data (signal) (HDAC8; [12]): 39809686 | HDAC8 activity raw data (signal) (HDAC8; [13]): 39972357 | HDAC8 activity raw data (signal) (HDAC8; [14]): 43706367 | HDAC8 activity raw data (signal) (HDAC8; [15]): 45310513 | HDAC8 activity raw data (signal) (HDAC8; [16]): 46840747 | HDAC8 activity raw data (signal) (HDAC8; [17]): 46072556 | HDAC8 activity raw data (signal) (HDAC8; [18]): 54262535 | HDAC8 activity raw data (signal) (HDAC8; [19]): 46072556
